Assay results from article PMC12037037 (Proceedings of the National Academy of Sciences of the …, 2025).

Legend:
[1] = test system: panel of 55 central nervous system targets; test: Competitive radioligand binding selectivity panel (Eurofins Discovery)
Protocol: Figure S3. Selectivity profiles for (+)-JRT and (–)-JRT across 55 central nervous system targets. The effects of (+)- JRT (10 μM) and (–)-JRT (10 μM) on a wide range of targets were assessed by Eurofins Discovery. Data represent % inhibition of the binding of a radioactively labeled ligand specific for each target. Assays were conducted in duplicate and the results were averaged.
Data Analysis and Statistics. Treatments were randomized, and data were analyzed by experimenters blinded to treatment conditions. Statistical analyses were performed using GraphPad Prism (version 10.0.3) unless noted otherwise.
All comparisons were planned prior to performing each experiment. No data were excluded. Data are represented as mean ± SEM, unless noted otherwise, with asterisks indicating *p < 0.05, **p < 0.01, ***p < 0.001, and ****p < 0.0001. Details of all statistical tests are shown in SI Appendix, Table S1. […]
Both (+)-JRT and (–)-
JRT were synthesized in-house and judged to be analytically pure based on NMR and LC-MS data. For cell culture experiments, VEH = 0.1% (agonist studies) or 0.2% (antagonist studies) molecular biology grade dimethyl sulfoxide (Sigma-Aldrich). For in vivo experiments, compounds were administered i.p. at 5 mL/kg using 0.9% saline as the vehicle, unless noted otherwise. VEH = USP grade saline (0.9%). Stock solutions for behavioral assays were prepared fresh before use.
Fumarate salts of (+)-JRT and (–)-JRT were used for all biological studies unless noted otherwise.
Animals. All experimental procedures involving animals were approved by the Institutional Animal Care and Use Committee (IACUC) at the University of California, Davis, the Salk Institute, Weill Cornell Medicine, McLean Hospital (Harvard Medical School), or the Contract Research Organization (CRO) where the study was performed. All procedures involving animals adhered to principles described in the National Institutes of Health Guide for the Care and Use of Laboratory Animals.
Animals were either obtained from Jackson Laboratory (Sacramento, C.A.) or bred in-house unless noted otherwise. Power analyses were conducted to ensure appropriate sample sizes for all experiments involving animals. Animals were housed 2–5 animals of the same sex per cage on a 12h light/dark cycle and were given ad libitum access to food and water unless noted otherwise. The University of California, Davis, the Salk Institute, and Weill Cornell Medicine are accredited by the Association for Assessment and Accreditation of Laboratory Animal Care International (AAALAC). Whenever possible, both sexes were utilized. However, a single sex was utilized in some cases when 1) a contract research organization had only […]
Radioligand Binding Selectivity Panel. Competitive radioligand binding studies for (+)-JRT (10 μM) and (–)-JRT (10 μM) were performed across a panel of receptors at Eurofins Discovery. Experiments were performed using the free bases of […]
radioligand and source of receptor (5,6,7,8,9,10,11,12).
Radioligand Binding Assays (5-HT2AR and 5-HT2CR). The 5-HT2AR and 5-HT2CR competitive radioligand binding assays were performed at Epics Therapeutics S.A. (Belgium, FAST-0505B) using conventional methods. Experiments were performed using the free bases of (+)-JRT and (–)-JRT. […] Nonspecific binding was determined by co-incubation with 200-fold excess of cold competitor DOI. […]

C57BL/6J mice = test: Amphetamine-induced locomotion; assay type: in vivo; conditions: VEH + AMPH 3 mg/kg
Protocol: Figure S11. […] (A) Pretreatment with (+)-JRT (1 mg/kg,
(§1) IP) can block AMPH-induced hyperlocomotion in female, but not male, mice. (B) Pretreatment with (+)-JRT (1 mg/kg, IP) […]
(§2) AMPH = (+)-amphetamine; PCP = phencyclidine; VEH = vehicle; ns = not significant. *p < 0.05, **p < 0.01, ***p < 0.001, ****p < 0.0001, as compared to the comparator(s) indicated by a horizontal bar. See Methods and SI Appendix, Table S1 for full details on statistics.
(1 picture or pasted object on this page, not shown here)
Amphetamine-Induced Locomotion. The amphetamine-induced hyperlocomotion assay was performed using male and female C57BL/6J mice that were approximately 8 weeks old at the time of the experiments. Animals were first placed in the test arena (40 cm x 40 cm) for 15 min to obtain a basal reading of locomotion and habituate them to the testing arena.
Next, animals were administered (+)-JRT (1 mg/kg) or VEH (2.5 mL/kg, i.p) and placed back in the test arena. After 15 min, the animals were administered (+)-amphetamine (3 mg/kg) or VEH (2.5 mL/kg) and placed back in the test arena for 60 minutes. Locomotion during the entire experiment was quantified using ANYmaze Video Tracking System, version 7.07 (Stoelting Co.). The test arena was cleaned thoroughly with 70% ethanol between trials. […]
(§3) Reads were aligned to the GRCm39 genome assembly using STAR, processed with Picard, and counted with the Subread software. Transcript inclusion criteria consisted of a minimum raw expression level of 25 transcripts in a minimum of 4 samples. Surrogate variable analysis was conducted with the sva package 2023 release v3.5.0 in R and normalization and differential expression analysis was performed with DESeq2 v4.3 with a baseMean threshold of 10. Heatmaps were created with the pheatmap v1.0.12 with sample-wise z-scores plotted and both row and column grouping allowed using pearson's distances and ward.D for clustering. Gene-wise selection criteria for heatmaps were a baseMean expression threshold of 50 to focus on robustly expressed genes, p value < 0.05, and presence in the top 250 genes sorted by absolute value of log2FC. Additionally, z score was capped at 2 for visualization purposes. Schizophrenia gene sets were extracted from a recent TWAS study (30).
(§4) For Figure S8G, the TWAS set was filtered for FDR < 0.01. Permutation testing was conducted to quantify the overlap of top genes from schizophrenia TWAS with the perm_test function from the bulkWarehouse package 2023 release v1.2.7.
(§5) Briefly, the intersection of top differentially expressed genes and top TWAS genes is compared to an empirical distribution created by calculating the intersection with our top DEGs when randomly sampling candidate genes from our dataset equal to the size of the TWAS sample. […]

male C57BL/6J mice = test: PCP-induced locomotion (Psychogenics); assay type: in vivo; conditions: VEH + PCP 5 mg/kg IP; VEH + VEH 11101 ± 1709
Protocol: as §1, §2
(1 picture or pasted object on this page, not shown here) […]
PCP-Induced Locomotion. The PCP-induced hyperlocomotion assay was performed by Psychogenics using male C57BL/6J mice that were approximately 8 weeks old at the time of the experiments. The experiment was performed during the animal’s light cycle phase. On the day of testing, animals were acclimated to the experimental room for at least 1 h prior to treatment. Animals were then administered with VEH or JRT (IP, 10 mL/kg) and placed in holding cages for 30 min, after which mice were placed in the open field chambers (27.3 x 27.3 x 30.3; Med Associates Inc., St Albans, VT). Baseline activity was recorded for 30 min. Next, mice received either PCP (5 mg/kg, IP, 10 ml/kg) or VEH and were returned to the open field chambers for a 60 min test session. Locomotion was assessed using consecutive infrared beam breaks. At the end of each session, the chambers were thoroughly cleaned. […]
as §3, §4, §5

[2] = test system: cultured rat embryonic cortical neurons; test: Neuritogenesis assay (Sholl analysis, DIV6); assay type: cell-based; conditions: 1 µM, DIV6, mean ± SEM
male Sprague Dawley rats = test: Rat forced swim test (FST); assay type: in vivo; conditions: 10mg/kg IP, 24 h after administration
Protocol: as §3, §4
Briefly, the intersection of top differentially expressed genes and top TWAS genes is compared to an empirical distribution created by calculating the intersection with our top DEGs when randomly sampling candidate genes from our dataset equal to the size of the TWAS sample. Selection criteria from the TWAS include an expression level of 25 transcripts in a minimum of 4 samples in our dataset, FDR < 0.01 from the TWAS and top 250 sorted by absolute value of log2FC. Selection criteria from our gene set were an expression level of 25 transcripts in a minimum of 4 samples, p value < 0.1 and top 250 sorted by absolute value of log2FC.
Rat Forced Swim Test (FST). This study was performed by Psychogenics (Paramus, NJ). Male Sprague Dawley rats were purchased from Envigo (Indianapolis, IN), and were 8 weeks old at the time of the experiments. Upon receipt, they were assigned unique identification numbers (tail marked) and group housed in ventilated cages with 3 rats per cage. All animals […]
remained housed in groups of three for the remainder of the study. All rats were acclimated to the colony room for up to one week prior to dosing. During the period of acclimation, rats were examined and handled daily, and weighed to assure adequate health and suitability. The room temperature was maintained between 20 °C and 23 °C with a relative humidity of 30%–70%. Lab Rodent Diet 5001 (W.F. Fisher, Cat # 11015) and water were provided ad libitum. Animals were randomly assigned across treatment groups. All testing was performed during the light phase of the light/dark cycle. Behavioral testing was conducted according to established protocols approved by the IACUC committee and PGI Standard Operation Procedures (SOP). Each forced swim chamber was constructed of clear acrylic (height = 40 cm; diameter = 20.3 cm). Only one rat was placed in the swim chamber at a time for each swim test. The water was changed and the chamber cleaned between each animal. The water depth was 16 cm in the first swim session (pre-test) and 30 cm in the second swim session (test). The water was maintained at 23 °C ± 1 °C for all swim sessions. At the end of each swim test rats were dried with paper towels and returned to the home cage. All animals were carefully monitored to ensure their safety in the swim test and any animal unable to maintain a posture with its nose above water was immediately removed from the water and not used further in the study. Animals were first subjected to a pre-test for 15 min. Immediately after the pre-test, they were administered compounds or VEH via i.p. injection (1 ml/kg). Racemic ketamine hydrochloride (10 mg/kg) was used as a positive control. A salt correction factor of 1.36 was used when preparing formulations of (+)-JRT to ensure that the dose corresponded to that of the free base. […]

male Long Evans rats = test: Probabilistic reward task (PRT) under chronic cold-water stress; assay type: in vivo; conditions: KET 10 mg/kg IP

With CCN(CC)C(=O)[C@H]1C=C2c3cccc4ccn(c34)C[C@@H]2N(C)C1 [(–)-JRT] the “Selectivity across panel of 55 central nervous system targets” value ([1]; 10 μM, free bases) was “highly selective for a subset of serotonin receptors” and the “Affinity for dopamine, histamine, or adrenergic receptors” value ([1]; radioligand binding, unlike LSD) was “neither of these compounds exhibited affinity”.

In the case of C[C@H](N)Cc1ccccc1 [AMPH, (+)-amphetamine, reference compound], the “Locomotion (Figure 11A Females)” value (C57BL/6J mice; female mice, VEH + VEH 101.9 ± 15.04) is reported as 418.5 ± 32.97 and the “Locomotion (Figure 11A Males)” value (C57BL/6J mice; male mice, VEH + VEH 59.80 ± 4.206) is reported as 330.5 ± 74.31.

For c1ccc(C2(N3CCCCC3)CCCCC2)cc1 [PCP, phencyclidine, reference compound], the “Locomotion, infrared beam breaks (Figure 11B)” value (male C57BL/6J mice) was 26552 ± 1179.

For CN1CCN(C2=Nc3cc(Cl)ccc3Nc3ccccc32)CC1 [CLZ, clozapine, reference compound], the “Area under the curves of the Sholl plots (Figure S8D)” value ([2]; VEH 1.000 ± 0.05010) was 1.045 ± 0.04563, the “Total branches (Figure S8C)” value ([2]; VEH 2.325 ± 0.2641) was 3.280 ± 0.2858 and the “Number of primary dendrites (Figure S8B)” value ([2]; VEH 6.275 ± 0.2292) was 7.620 ± 0.2586.

For CNC1(c2ccccc2Cl)CCCCC1=O (centres unmarked) [Ketamine, ketamine, reference compound], the “Swimming (Figure 6B)” value (male Sprague Dawley rats; VEH 22.10 ± 1.929) was 34.10 ± 1.187, the “Immobility (Figure 6B)” value (male Sprague Dawley rats; VEH 37.20 ± 1.867, of 60 scored behaviors) was 25.00 ± 1.265 and the “Response bias (log b) (Figure 6G)” value (male Long Evans rats; Day 2, Day 1 0.120 ± 0.042) was 0.330 ± 0.035. The “Response bias (log b) (Figure 6G)” value (male Long Evans rats; Day 3, Day 1 0.120 ± 0.042) was 0.304 ± 0.091, the “Response bias (log b) (Figure 6G)” value (male Long Evans rats; Day 11, Day 1 0.120 ± 0.042) was 0.266 ± 0.086 and the “Response bias (log b) (Figure 6G)” value (male Long Evans rats; Day 1 (stressed, before drug) 0.120 ± 0.042) was 0.457 ± 0.070.
